Data reported in ChEMBL document CHEMBL4028802, “DILIrank: the largest reference drug list ranked by the risk for developing drug-induced liver injury in humans” (Drug Discov Today, 2016).

Columns and labels:
Homo sapiens [1] = species: Homo sapiens; test: Liver toxicity in human assessed as induction of drug-induced liver injury by measuring severity class index
Homo sapiens [2] = species: Homo sapiens; test: Liver toxicity in human assessed as induction of drug-induced liver injury by measuring verified drug-induced liver injury concern status
For DILI severity class in this document: key of the grades not given here.

SMILES | DILI_severity_class (Homo sapiens [1]) | DILI_Concern (Homo sapiens [2])
O=C1c2c(O)ccc(O)c2C(=O)c2c(NCCNCCO)ccc(NCCNCCO)c21 [MITOXANTRONE] | 3 | Less-Dili-Concern
NC(=O)C[S+]([O-])C(c1ccccc1)c1ccccc1 (stereo unspecified) [MODAFINIL] | 3 | Less-Dili-Concern
CCOC(=O)[C@H](CCc1ccccc1)N[C@@H](C)C(=O)N1Cc2cc(OC)c(OC)cc2C[C@H]1C(=O)O [MOEXIPRIL] | 3 | Ambiguous-Dili-Concern
CC(C)(O)c1ccccc1CC[C@@H](SCC1(CC(=O)O)CC1)c1cccc(/C=C/c2ccc3ccc(Cl)cc3n2)c1 [MONTELUKAST] | 3 | Less-Dili-Concern
CCOC(=O)Nc1ccc2c(c1)N(C(=O)CCN1CCOCC1)c1ccccc1S2 [MORICIZINE] | 5 | Ambiguous-Dili-Concern
CN1CC[C@]23c4c5ccc(O)c4O[C@H]2[C@@H](O)C=C[C@H]3[C@H]1C5 [MORPHINE] | 0 | No-Dili-Concern
COc1c(N2C[C@@H]3CCCN[C@@H]3C2)c(F)cc2c(=O)c(C(=O)O)cn(C3CC3)c12 [MOXIFLOXACIN] | 8 | Less-Dili-Concern
CC(=O)Oc1cc(C(C)C)c(OCCN(C)C)cc1C [MOXISYLYTE] | 8 | Most-Dili-Concern
COc1c(C)c2c(c(O)c1C/C=C(\C)CCC(=O)OCCN1CCOCC1)C(=O)OC2 [MYCOPHENOLATE MOFETIL] | 3 | Less-Dili-Concern
COc1c(C)c2c(c(O)c1C/C=C(\C)CCC(=O)O)C(=O)OC2 [MYCOPHENOLIC ACID] | 3 | Ambiguous-Dili-Concern
CCCCCCC(C)(C)c1cc(O)c2c(c1)OC(C)(C)C1CCC(=O)CC21 (stereo unspecified) [NABILONE] | 0 | No-Dili-Concern
COc1ccc2cc(CCC(C)=O)ccc2c1 [NABUMETONE] | 3 | Ambiguous-Dili-Concern
CC(C)(C)NCC(O)COc1cccc2c1CC(O)C(O)C2 (stereo unspecified) [NADOLOL] | 3 | Ambiguous-Dili-Concern
CCOc1ccc2ccccc2c1C(=O)N[C@@H]1C(=O)N2[C@@H]1SC(C)(C)[C@@H]2C(=O)O [NAFCILLIN] | 3 | Less-Dili-Concern
Oc1ccc2c3c1O[C@H]1[C@@H](O)CC[C@@]4(O)[C@@H](C2)N(CC2CCC2)CC[C@]314 [NALBUPHINE] | 0 | No-Dili-Concern
CCn1cc(C(=O)O)c(=O)c2ccc(C)nc21 [NALIDIXIC ACID] | 3 | Ambiguous-Dili-Concern
C=C1CC[C@@]2(O)[C@H]3Cc4ccc(O)c5c4[C@@]2(CCN3CC2CC2)[C@H]1O5.Cl [NALMEFENE HYDROCHLORIDE] | 3 | Ambiguous-Dili-Concern
C=CCN1CC[C@]23c4c5ccc(O)c4O[C@H]2C(=O)CC[C@@]3(O)[C@H]1C5 [NALOXONE] | 0 | No-Dili-Concern
O=C1CC[C@@]2(O)[C@H]3Cc4ccc(O)c5c4[C@@]2(CCN3CC2CC2)[C@H]1O5 [NALTREXONE] | 3 | Ambiguous-Dili-Concern
CCCCCCCCCC(=O)O[C@H]1CC[C@H]2[C@@H]3CCC4=CC(=O)CC[C@@H]4[C@H]3CC[C@]12C [NANDROLONE DECANOATE] | 7 | Most-Dili-Concern
COc1ccc2cc([C@H](C)C(=O)O)ccc2c1 [NAPROXEN] | 3 | Less-Dili-Concern
CC(C)[C@H]1CC[C@H](C(=O)N[C@H](Cc2ccccc2)C(=O)O)CC1 [NATEGLINIDE] | 3 | Ambiguous-Dili-Concern

SMILES | DILI_severity_class (Homo sapiens [1]) | DILI_Concern (Homo sapiens [2])
OC(CNCC(O)C1CCc2cc(F)ccc2O1)C1CCc2cc(F)ccc2O1 (stereo unspecified) [NEBIVOLOL] | 3 | Ambiguous-Dili-Concern
CCc1nn(CCCN2CCN(c3cccc(Cl)c3)CC2)c(=O)n1CCOc1ccccc1 [NEFAZODONE] | 8 | Most-Dili-Concern
COc1nc(N)nc2c1ncn2[C@@H]1O[C@H](CO)[C@@H](O)[C@@H]1O [NELARABINE] | 4 | Less-Dili-Concern
Cc1ccnc2c1NC(=O)c1cccnc1N2C1CC1 [NEVIRAPINE] | 8 | Most-Dili-Concern
O=C(CCNNC(=O)c1ccncc1)NCc1ccccc1 [NIALAMIDE] | 8 | Most-Dili-Concern
COC(=O)C1=C(C)NC(C)=C(C(=O)OCCN(C)Cc2ccccc2)C1c1cccc([N+](=O)[O-])c1 (stereo unspecified) [NICARDIPINE] | 3 | Ambiguous-Dili-Concern
COC(=O)C1=C(C)NC(C)=C(C(=O)OC)C1c1ccccc1[N+](=O)[O-] [NIFEDIPINE] | 3 | Less-Dili-Concern
Cc1cn(-c2cc(NC(=O)c3ccc(C)c(Nc4nccc(-c5cccnc5)n4)c3)cc(C(F)(F)F)c2)cn1 [NILOTINIB] | 4 | Ambiguous-Dili-Concern
CC1(C)NC(=O)N(c2ccc([N+](=O)[O-])c(C(F)(F)F)c2)C1=O [NILUTAMIDE] | 8 | Most-Dili-Concern
CS(=O)(=O)Nc1ccc([N+](=O)[O-])cc1Oc1ccccc1 [NIMESULIDE] | 8 | Most-Dili-Concern
COCCOC(=O)C1=C(C)NC(C)=C(C(=O)OC(C)C)C1c1cccc([N+](=O)[O-])c1 (stereo unspecified) [NIMODIPINE] | 3 | Ambiguous-Dili-Concern
CN(C)Cc1ccc(CSCCN/C(=C\[N+](=O)[O-])NCc2ccc3c(c2)OCO3)o1 [NIPEROTIDINE] | 8 | Most-Dili-Concern
COC(=O)C1=C(C)NC(C)=C(C(=O)OCC(C)C)C1c1ccccc1[N+](=O)[O-] (stereo unspecified) [NISOLDIPINE] | 3 | Ambiguous-Dili-Concern
CC(=O)Oc1ccccc1C(=O)Nc1ncc([N+](=O)[O-])s1 [NITAZOXANIDE] | 0 | No-Dili-Concern
O=C1CCCC(=O)C1C(=O)c1ccc(C(F)(F)F)cc1[N+](=O)[O-] [NITISINONE] | 7 | Ambiguous-Dili-Concern
Cc1nc([N+](=O)[O-])cn1-c1ccc([N+](=O)[O-])cc1 [NITREFAZOLE] | 8 | Most-Dili-Concern
O=C1CN(/N=C/c2ccc([N+](=O)[O-])o2)C(=O)N1 [NITROFURANTOIN] | 8 | Most-Dili-Concern
O=[N+]([O-])OCC(CO[N+](=O)[O-])O[N+](=O)[O-] [NITROGLYCERIN] | 0 | No-Dili-Concern
CNC(=C[N+](=O)[O-])NCCSCc1csc(CN(C)C)n1 [NIZATIDINE] | 5 | Less-Dili-Concern
CN1Cc2c(N)cccc2C(c2ccccc2)C1 (stereo unspecified) [NOMIFENSINE] | 8 | Most-Dili-Concern
NC[C@H](O)c1ccc(O)c(O)c1 [NOREPINEPHRINE] | 0 | No-Dili-Concern
